In patent publication US8722720B2, “Imidazole derivatives as IDO inhibitors” (NewLink Genetics Corporation, priority 2010, dated 2014):
pIC50: −log10 of the molar value.

Molecular target: T1, purified human IDO protein (Homo sapiens, UniProt P14902)
T1 construct: 2 extra amino acids (linker from the BglII cloning site of pQE70); made in house; host or cells: E. coli M15(pREP4) with plasmid pQE70-hIDO
Experiment: Enzymatic IDO assay (kynurenine production, absorbance at 480 nm)
Assay type: biochemical
Conditions: hIDO IC50, recombinant human IDO; values reported in ranges
Outline: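 Inhibitors (final 1 mM to 5 nM, in 50 mM potassium phosphate) preincubated with enzyme 5 min at 25 °C, then 200 μM L-tryptophan added, 15 min at 37 °C. TCA stop and 60 °C hydrolysis to kynurenine, detected with p-dimethylaminobenzaldehyde at 480 nm. IC50 by nonlinear regression.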

T1 sequence (P14902 whole entry P110S/E119G): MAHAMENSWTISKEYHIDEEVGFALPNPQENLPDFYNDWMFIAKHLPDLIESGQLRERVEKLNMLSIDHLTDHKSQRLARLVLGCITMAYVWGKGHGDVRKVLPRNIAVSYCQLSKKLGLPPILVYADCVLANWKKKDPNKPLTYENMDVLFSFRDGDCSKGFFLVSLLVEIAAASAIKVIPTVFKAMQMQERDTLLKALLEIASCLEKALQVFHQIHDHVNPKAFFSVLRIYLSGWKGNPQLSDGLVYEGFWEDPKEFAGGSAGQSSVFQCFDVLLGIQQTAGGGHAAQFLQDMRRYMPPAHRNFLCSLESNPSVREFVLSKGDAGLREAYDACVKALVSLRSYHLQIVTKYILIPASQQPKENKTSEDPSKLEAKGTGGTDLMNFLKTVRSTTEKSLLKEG

Structure (SMILES)	pIC50
CN(C(=O)Oc1ccc(Cl)cc1-c1c[nH]cn1)c1ccccc1 [compound 1088, 4-chloro-2-(1H-imidazol-4-yl)phenyl methyl(phenyl)carbamate]	< 4.00

Same assay, conditions: recombinant human IDO; values reported in ranges; read-out: hIDO IC50

Structure (SMILES)	pIC50
COC(=O)[C@@H](Cc1cn(C)c2ccccc12)NC(=O)Oc1ccc(Cl)cc1-c1c[nH]cn1 [compound 1264, (R)-methyl 2-(((4-chloro-2-(1H-imidazol-4-yl)phenoxy)carbonyl)amino)-3-(1-methyl-1H-indol-3-yl) propanoate]	5.00 to 6.00
O=C(Nc1ccc(CCOc2ccccc2-c2c[nH]cn2)cc1)Nc1ccccc1[N+](=O)[O-] [compound 1192, 1-(4-(2-(2-(1H-imidazol-4-yl)phenoxy)ethyl)phenyl)-3-(2-nitrophenyl)urea]	> 6.00
O=C(O)c1ccc(COc2ccccc2-c2c[nH]cn2)cc1 [compound 1032, lithium 4-((2-(1H-imidazol-4-yl)phenoxy)methyl) benzoate]	4.00 to 5.00
N[C@H]1CCCC[C@H]1NC(=O)Nc1ccc(CCOc2ccccc2-c2c[nH]cn2)c(Cl)c1 (racemic) [compound 1368, 1-(4-(2-(2-(1H-imidazol-4-yl)phenoxy)ethyl)-3-chlorophenyl)-3-(±(1R,2S)-2-aminocyclohexyl)urea]	> 6.00
O=C(CN1CCCCCC1)Nc1ccc(CCOc2ccccc2-c2c[nH]cn2)cc1 [compound 1219, N-(4-(2-(2-(1H-imidazol-4-yl)phenoxy)ethyl)phenyl)-2-(azepan-1-yl)acetamide]	4.00 to 5.00
COc1cccc2c1-c1cncn1C2 [compound 1013, 9-methoxy-5H-imidazo[5,1-a]isoindole]	4.00 to 5.00
CC(C)(C)CCOc1ccc(O)c(-c2cnc[nH]2)c1 [compound 1107, 4-(3,3-dimethylbutoxy)-2-(1H-imidazol-5-yl) phenol]	4.00 to 5.00
OC(c1ccccc1)c1c[nH]cn1 (stereo not drawn) [compound 1006, (1H-imidazol-4-yl)(phenyl)methanol]	< 4.00
O=C(CC1CCOCC1)Nc1ccc(CCOc2ccccc2-c2c[nH]cn2)c(F)c1 [compound 1295, N-(4-(2-(2-(1H-imidazol-4-yl)phenoxy)ethyl)-3-fluorophenyl)-2-(tetrahydro-2H-pyran-4-yl)acetamide]	> 6.00
O=C(Nc1ccc(CCOc2ccccc2-c2c[nH]cn2)cc1)c1cc(=O)[nH]c(=O)[nH]1 [compound 1272]	5.00 to 6.00
COc1ccccc1-c1cnco1 [compound 945, 5-(2-methoxyphenyl)oxazole]	< 4.00
c1ccc2[nH]c(-c3c[nH]cn3)cc2c1 [compound 975, 2-(1H-imidazol-4-yl)-1H-indole]	4.00 to 5.00
c1ccc2c(-c3c[nH]cn3)ccnc2c1 [compound 1007, 4-(1H-imidazol-4-yl)quinoline]	< 4.00
CC(Cc1ccccc1Cl)Oc1ccccc1-c1c[nH]cn1 (stereo not drawn) [compound 1043, 4-(2-(1-(2-chlorophenyl)propan-2-yloxy)phen-yl)-1H-imidazole]	5.00 to 6.00
c1ccc(-c2c[nH]cn2)c(OCCC2CCCO2)c1 (stereo not drawn) [compound 1213, 4-(2-(2-(tetrahydrofuran-2-yl)ethoxy)phenyl)-1H-imidazole]	4.00 to 5.00
Clc1ccc(CCOc2ccccc2-c2c[nH]cn2)cn1 [compound 1218, 5-(2-(2-(1H-imidazol-4-yl)phenoxy)ethyl)-2-chloropyridine]	4.00 to 5.00
O=C1CCCCN1c1ccc(CCOc2ccccc2-c2c[nH]cn2)cc1 [compound 1230, 1-(4-(2-(2-(1H-imidazol-4-yl)phenoxy)ethyl)phenyl)piperidin-2-one]	4.00 to 5.00
c1ccc(-c2c[nH]cn2)c(OCCc2ccc(-c3ccsc3)cc2)c1 [compound 1201, 4-(2-(4-(thiophen-3-yl)phenethoxy)phenyl)-1H-imidazole]	4.00 to 5.00
O=C(O)c1ccccc1-c1c[nH]cn1 [compound 926, 2-(1H-imidazol-4-yl)benzoic acid]	< 4.00
CC(=O)Nc1ccc(CCOc2ccccc2-c2c[nH]cn2)c(Cl)c1 [compound 1159, N-(4-(2-(2-(1H-imidazol-4-yl)phenoxy)ethyl)-3-chlorophenyl)acetamide]	5.00 to 6.00
COc1cccc(-c2c[nH]cn2)n1 [compound 1009, 2-(1H-imidazol-4-yl)-6-methoxypyridine]	< 4.00
O=C(Nc1ccccc1)Nc1ccc(CCOc2ccccc2-c2cnc[nH]2)cc1 [compound 1152, 1-(4-(2-(2-(1H-imidazol-4-yl)phenoxy)ethyl)phenyl)-3-phenylurea]	> 6.00
c1ccc(-c2c[nH]cn2)c(OCCc2ccc(N3CCCC3)cc2)c1 [compound 1225, 4-(2-(4-(pyrrolidin-1-yl)phenethoxy)phenyl)-1H-imidazole]	4.00 to 5.00
CN1CCN(CCOc2ccccc2-c2c[nH]cn2)CC1 [compound 1234, 1-(2-(2-(1H-imidazol-4-yl)phenoxy)ethyl)-4-methylpiperazine]	< 4.00
O=C(CC1CCCO1)Nc1ccc(CCOc2ccccc2-c2c[nH]cn2)cc1 (stereo not drawn) [compound 1199, N-(4-(2-(2-(1H-imidazol-4-yl)phenoxy)ethyl)phenyl)-2-(tetrahydrofuran-2-yl)acetamide]	5.00 to 6.00
c1csc(CCOc2ccccc2-c2c[nH]cn2)c1 [compound 1198, 4-(2-(2-(thiophen-2-yl)ethoxy)phenyl)-1H-imidazole]	4.00 to 5.00

Now from value to compound:

pIC50	Structure (SMILES)
4.00 to 5.00	Fc1ccc(COc2ccccc2-c2c[nH]cn2)cc1 [compound 1022, 4-(2-(4-fluorobenzyloxy)phenyl)-1H-imidazole]
4.00 to 5.00	Brc1ccc(OCCC2CCCCC2)c(-c2c[nH]cn2)c1 [compound 1016, 4-(5-bromo-2-(2-cyclohexylethoxy)phenyl)-1H-imidazole]
4.00 to 5.00	CC(=O)NCc1cccc(COc2ccccc2-c2c[nH]cn2)c1 [compound 958, N-(3-((2-(1H-imidazol-4-yl)phenoxy)methyl)benzyl)acetamide]
4.00 to 5.00	Oc1ccc(-c2ccccc2)cc1-c1c[nH]cn1 [compound 1005, 3-(1H-imidazol-4-yl)biphenyl-4-ol]
< 4.00	Nn1cncc1-c1ccccc1 [compound 1115, 5-phenyl-1H-imidazol-1-amine]
4.00 to 5.00	c1ccc2c(-c3cnc[nH]3)cccc2c1 [compound 957, 5-(naphthalen-1-yl)-1H-imidazole]
< 4.00	c1ccc(-c2c[nH]cn2)c(OCCN2CCOCC2)c1 [compound 1236, 4-(2-(2-(1H-imidazol-4-yl)phenoxy)ethyl) morpholine]
5.00 to 6.00	O=C(O)c1ccccc1C(=O)Nc1ccc(CCOc2ccccc2-c2c[nH]cn2)cc1 [compound 1285, 2-((4-(2-(2-(1H-imidazol-4-yl)phenoxy)ethyl)phenyl)carbamoyl)benzoic acid]
< 4.00	Oc1ccc(Cl)cc1-c1cnc2cnccn12 [compound 1038, 4-chloro-2-(imidazo[1,2-a]pyrazin-3-yl)phenol]
< 4.00	c1nc(-c2ccc3c(c2)OCO3)c[nH]1 [compound 955, 4-(benzo[d][1,3]dioxol-5-yl)-1H-imidazole]
4.00 to 5.00	CCOC(=O)/C=C/c1ccccc1-c1c[nH]cn1 [compound 1014, (E)-ethyl 3-(2-(1H-imidazol-4-yl)phenyl)acrylate]
4.00 to 5.00	Oc1cccc(OCCC2CCCO2)c1-c1cnc[nH]1 (stereo not drawn) [compound 1235, 2-(1H-imidazol-5-yl)-3-(2-(tetrahydrofuran-2-yl)ethoxy)phenol]
5.00 to 6.00	O=C(Cc1cccc([N+](=O)[O-])c1)Nc1ccc(CCOc2ccccc2-c2c[nH]cn2)cc1 [compound 1241, N-(4-(2-(2-(1H-imidazol-4-yl)phenoxy)ethyl)phenyl)-2-(3-nitrophenyl)acetamide]
> 6.00	Nc1ccccc1CC(=O)Nc1ccc(CCOc2ccccc2-c2c[nH]cn2)cc1 [compound 1248, N-(4-(2-(2-(1H-imidazol-4-yl)phenoxy)ethyl)phenyl)-2-(2-aminophenyl)acetamide]
5.00 to 6.00	O=C(Nc1ccc(CCOc2ccccc2-c2c[nH]cn2)cc1)OCc1ccccc1 [compound 1136, benzyl (4-(2-(2-(1H-imidazol-4-yl)phenoxy)ethyl)phenyl)carbamate]
< 4.00	c1cnc(-c2c[nH]cn2)nc1 [compound 972, 2-(1H-imidazol-4-yl)pyrimidine]
< 4.00	O=C(O)c1ccccc1C(=O)COc1ccccc1-c1c[nH]cn1 [compound 979, 2-(2-(2-(1H-imidazol-4-yl)phenoxy)acetyl) benzoic acid]
4.00 to 5.00	Clc1ccccc1CCOc1ccc(Br)cc1-c1c[nH]cn1 [compound 1021, 4-(5-bromo-2-(2-chlorophenethoxy)phenyl)-1H-imidazole]
> 6.00	CC(=O)NC(C(=O)Nc1ccc(CCOc2ccccc2-c2c[nH]cn2)c(Cl)c1)C1CCOCC1 (stereo not drawn) [compound 1337, N-(4-(2-(2-(1H-imidazol-4-yl)phenoxy)ethyl)-3-chlorophenyl)-2-acetamido-2-(tetrahydro-2H-pyran-4-yl)acetamide]
> 6.00	Nc1ncccc1C(=O)Nc1ccc(CCOc2ccccc2-c2c[nH]cn2)c(Cl)c1 [compound 1345, N-(4-(2-(2-(1H-imidazol-4-yl)phenoxy)ethyl)-3-chlorophenyl)-2-aminonicotinamide]
< 4.00	c1cnc2[nH]cc(-c3c[nH]cn3)c2c1 [compound 964, 3-(1H-imidazol-4-yl)-1H-pyrrolo[2,3-b]pyridine]
4.00 to 5.00	Oc1ccccc1-c1cnco1 [compound 1139, 2-(oxazol-5-yl)phenol]
4.00 to 5.00	CN1CCN(CC(=O)Nc2ccc(CCOc3ccccc3-c3c[nH]cn3)cc2)CC1 [compound 1212, N-(4-(2-(2-(1H-imidazol-4-yl)phenoxy)ethyl)phenyl)-2-(4-methylpiperazin-1-yl)acetamide]
4.00 to 5.00	CC(=O)Nc1ccc(CCOc2cccc(O)c2-c2cnc[nH]2)cc1 [compound 1232, N-(4-(2-(3-hydroxy-2-(1H-imidazol-5-yl)phenoxy)ethyl)phenyl)acetamide]
